Our source for the IC50 values is US20210253642A1, “CALPAIN MODULATORS AND THERAPEUTIC USES THEREOF BACKGROUND” (Blade Therapeutics, Inc., priority 2018, published 2021).

What all share (assay type): biochemical
One assay addresses T1, Human Calpain 1/NS1 (Homo sapiens, UniProt P07384).
T1 sequence (P07384 1-714): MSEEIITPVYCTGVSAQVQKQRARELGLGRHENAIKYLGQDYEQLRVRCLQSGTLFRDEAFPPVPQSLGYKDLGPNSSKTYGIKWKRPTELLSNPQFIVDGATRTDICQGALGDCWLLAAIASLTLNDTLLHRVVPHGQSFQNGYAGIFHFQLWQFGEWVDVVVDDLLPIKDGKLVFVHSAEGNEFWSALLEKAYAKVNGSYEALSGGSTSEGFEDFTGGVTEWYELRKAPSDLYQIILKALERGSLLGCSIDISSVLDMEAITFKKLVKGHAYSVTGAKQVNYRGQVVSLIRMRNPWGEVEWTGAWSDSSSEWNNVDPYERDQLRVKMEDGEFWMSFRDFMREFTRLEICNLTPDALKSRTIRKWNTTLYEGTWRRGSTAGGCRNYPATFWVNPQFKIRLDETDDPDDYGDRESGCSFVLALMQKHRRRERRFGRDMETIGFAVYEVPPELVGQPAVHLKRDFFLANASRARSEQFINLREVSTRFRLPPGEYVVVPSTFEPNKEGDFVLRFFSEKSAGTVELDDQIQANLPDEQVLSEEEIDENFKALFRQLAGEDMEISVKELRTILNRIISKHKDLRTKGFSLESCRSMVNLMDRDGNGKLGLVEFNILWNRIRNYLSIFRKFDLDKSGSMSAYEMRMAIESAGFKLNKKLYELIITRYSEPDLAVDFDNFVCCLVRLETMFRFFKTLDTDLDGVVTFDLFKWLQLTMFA
T1 sequence (P04632 1-268 partner): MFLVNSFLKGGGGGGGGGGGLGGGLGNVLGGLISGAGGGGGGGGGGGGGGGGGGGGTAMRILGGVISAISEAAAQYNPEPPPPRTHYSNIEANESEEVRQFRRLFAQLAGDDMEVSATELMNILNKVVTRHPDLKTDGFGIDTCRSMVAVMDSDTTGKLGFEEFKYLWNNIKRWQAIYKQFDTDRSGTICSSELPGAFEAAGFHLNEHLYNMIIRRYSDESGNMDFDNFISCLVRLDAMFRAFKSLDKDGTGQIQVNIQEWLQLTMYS
As to the kind of experiment: Calpain continuous fluorescence (FRET) inhibition assay. Conditions: Column A; SensoLyte 520 FRET substrate, pH 7.5, 25C. As for the experimental part: (§1) Calpain 1, 2, and 9 activity and inhibition thereof was assessed by means of a continuous fluorescence assay. The SensoLyte 520 Calpain substrate (Anaspec Inc.) was optimized for detecting calpain activity. This substrate contains an internally quenched 5-FAM/QXLTM 520 FRET pair. Calpains 1, 2, and 9 cleave the FRET substrate into two separate fragments resulting in an increase of 5-FAM fluorescence that is proportional to calpain activity
(§2) Assays were typically setup in black 384-well plates using automated liquid handling as follows. Calpain assay base buffer typically contains 50 mM Tris, pH 7.5, 100 mM NaCl and 1 mM DTT. Inhibitors were serially diluted in DMSO and used to setup 2× mixtures with calpains in the aforementioned buffer. After incubation at ambient temperature (25C), the reaction was initiated by adding a 2× mix of the fluorescent peptide substrate and CaCl2) (required for in-situ calpain activation) in the same buffer. Reaction progress curve data were typically collected for 10 min using excitation/emission wavelengths of 490 nm/520 nm on SpectraMax i3x or the FLIPR-Tetra plate readers (Molecular Devices Inc.). Reaction rates were calculated from progress curve slopes typically over 1-5 min. Dose response curves (rate vs. log inhibitor concentration) were typically fit to a 4-parameter logistic function to extract IC50 values.

The next assay deals with T2, Human Calpain 2/NS1 (Homo sapiens, UniProt P17655).
T2 sequence (P17655 1-700): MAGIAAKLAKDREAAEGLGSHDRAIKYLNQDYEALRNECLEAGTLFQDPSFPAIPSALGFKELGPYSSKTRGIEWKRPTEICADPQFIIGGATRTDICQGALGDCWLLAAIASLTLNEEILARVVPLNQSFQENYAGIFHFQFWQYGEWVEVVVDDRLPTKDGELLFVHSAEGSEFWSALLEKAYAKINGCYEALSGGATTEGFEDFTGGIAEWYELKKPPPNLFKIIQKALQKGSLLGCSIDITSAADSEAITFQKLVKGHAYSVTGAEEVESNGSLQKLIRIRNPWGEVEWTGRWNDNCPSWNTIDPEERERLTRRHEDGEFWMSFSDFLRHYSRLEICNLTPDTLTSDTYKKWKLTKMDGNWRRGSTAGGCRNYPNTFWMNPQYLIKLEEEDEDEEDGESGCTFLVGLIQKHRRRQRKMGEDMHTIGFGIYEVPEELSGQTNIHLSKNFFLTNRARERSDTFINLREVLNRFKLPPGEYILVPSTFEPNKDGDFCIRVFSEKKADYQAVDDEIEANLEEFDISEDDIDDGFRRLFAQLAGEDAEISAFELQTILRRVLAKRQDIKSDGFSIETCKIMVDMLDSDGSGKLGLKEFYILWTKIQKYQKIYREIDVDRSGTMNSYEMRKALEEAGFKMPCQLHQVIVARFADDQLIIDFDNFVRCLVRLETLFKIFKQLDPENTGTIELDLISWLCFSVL
T2 sequence (P04632 1-268 partner): T1 sequence (P04632 1-268 partner)
The description is as above. The settings on record: Column B; SensoLyte 520 FRET substrate, pH 7.5, 25C. As for the experimental part:
as §1, §2

Another assay addresses T3, Human Calpain 9/NS1 (Homo sapiens, UniProt O14815).
T3 sequence (O14815 1-690): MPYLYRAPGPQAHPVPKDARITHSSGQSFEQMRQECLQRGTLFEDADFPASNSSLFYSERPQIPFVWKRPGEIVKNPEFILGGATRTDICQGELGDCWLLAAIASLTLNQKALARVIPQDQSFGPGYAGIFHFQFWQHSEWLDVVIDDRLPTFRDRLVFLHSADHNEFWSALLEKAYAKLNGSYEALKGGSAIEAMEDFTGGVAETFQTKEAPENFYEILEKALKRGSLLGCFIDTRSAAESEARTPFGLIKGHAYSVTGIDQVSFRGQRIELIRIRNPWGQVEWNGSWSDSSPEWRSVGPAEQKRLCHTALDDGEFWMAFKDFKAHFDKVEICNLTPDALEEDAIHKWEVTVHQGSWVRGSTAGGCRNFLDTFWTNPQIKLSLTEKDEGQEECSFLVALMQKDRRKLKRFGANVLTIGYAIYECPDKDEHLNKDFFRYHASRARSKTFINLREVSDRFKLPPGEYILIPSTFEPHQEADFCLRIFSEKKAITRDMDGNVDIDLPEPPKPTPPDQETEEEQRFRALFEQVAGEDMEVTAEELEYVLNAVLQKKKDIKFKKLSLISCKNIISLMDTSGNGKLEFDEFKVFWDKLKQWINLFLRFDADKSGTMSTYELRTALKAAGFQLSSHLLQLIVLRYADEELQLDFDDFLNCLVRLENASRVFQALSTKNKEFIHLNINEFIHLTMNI
T3 sequence (P04632 1-268 partner): T1 sequence (P04632 1-268 partner)
The assay is described as above. The settings on record: Column C; SensoLyte 520 FRET substrate, pH 7.5, 25C. As for the experimental part:
as §1, §2

The next assay addresses T4, Human Cathepsin K (Homo sapiens, UniProt P43235).
T4 construct: purchased
T4 sequence (P43235 115-329): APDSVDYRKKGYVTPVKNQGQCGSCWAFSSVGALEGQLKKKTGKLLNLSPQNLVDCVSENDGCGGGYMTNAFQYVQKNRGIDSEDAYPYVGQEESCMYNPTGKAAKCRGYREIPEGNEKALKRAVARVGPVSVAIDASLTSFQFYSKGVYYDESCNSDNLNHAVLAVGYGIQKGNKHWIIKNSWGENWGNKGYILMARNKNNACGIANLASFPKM
In words: Cathepsin continuous fluorescence inhibition assay. Conditions: Column E; enzyme 10 nM, substrate 1 uM, pH 5.5, 30 minutes pre-incubation with inhibitor. The procedure:
(§3) Cathepsin activity and inhibition thereof was assessed by means of a continuous fluorescence assay. All assays were run in 384 well format and utilized peptide substrates that liberate fluorescence upon protease catalyzed cleavage. FLIPR plate readers (Molecular Devices Inc.) were used to monitor reactions and extract initial rates which were then fit (four parameter logistic function) to obtain IC50 values. All enzymes are human. All enzymes and reagents were obtained commercially and are summarized in Tables 1 and 2 below along with assay conditions.

Another assay concerns the target T5, Human Cathepsin L (Homo sapiens, UniProt P07711).
T5 construct: purchased
In words: Cathepsin continuous fluorescence inhibition assay. Conditions: Column G; enzyme 0.025 nM, substrate 1 uM, pH 6.0, 30 minutes pre-incubation with inhibitor. As for the experimental part: as §3

In a further assay the target is T6, Human Cathepsin S (Homo sapiens, UniProt P25774).
T6 construct: purchased
As to the kind of experiment: Cathepsin continuous fluorescence inhibition assay. Conditions: Column F; enzyme 6 nM, substrate 1 uM, pH 4.5, 30 minutes pre-incubation with inhibitor. The procedure: as §3

The target of the next assay is T7, Human Cathepsin B (Homo sapiens, UniProt P07858).
T7 construct: purchased
In words: Cathepsin continuous fluorescence inhibition assay. Conditions: Column D; enzyme 25 nM, substrate 1 uM, pH 5.0, 30 minutes pre-incubation with inhibitor. As for the experimental part: as §3

T6 sequence (P25774 115-331): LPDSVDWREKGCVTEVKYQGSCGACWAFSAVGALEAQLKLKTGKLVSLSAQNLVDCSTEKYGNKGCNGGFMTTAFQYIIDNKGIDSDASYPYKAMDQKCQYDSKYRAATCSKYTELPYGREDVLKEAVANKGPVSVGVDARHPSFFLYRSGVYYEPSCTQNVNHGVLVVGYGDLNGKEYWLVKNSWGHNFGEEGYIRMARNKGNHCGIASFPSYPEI
T5 sequence (P07711 114-333): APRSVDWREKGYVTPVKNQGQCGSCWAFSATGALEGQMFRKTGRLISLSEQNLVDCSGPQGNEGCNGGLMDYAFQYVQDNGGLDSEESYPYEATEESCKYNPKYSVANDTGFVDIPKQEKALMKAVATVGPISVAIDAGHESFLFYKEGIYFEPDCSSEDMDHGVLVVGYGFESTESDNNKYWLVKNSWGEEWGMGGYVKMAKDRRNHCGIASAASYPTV

What is called IC50 is the concentration needed to halve the response being measured. Lower therefore signals greater potency. With `CC(C)[C@@H]1NC(=O)/C=C/[C@@H](NC(=O)[C@@H](NC(=O)[C@H](Cc2ccc(O)cc2)NC(=O)OC(C)(C)C)C(C)C)COC(=O)[C@H](Cc2ccc(O)cc2)NC1=O` [Compound 3, Tert-butyl ((S)-1-(((S)-1-(((3S,6S,11R,E)-3-(4-Hydroxybenzyl)-6-isopropyl-2,5,8-trioxo-1-oxa-4,7-diazacyclododec-9-en-11-yl)amino)-3-methyl-1-oxobutan-2-yl)amino)-3-(4-hydroxyphenyl)-1-oxopropan-2-yl)carbamate], the 50% inhibitory concentration (IC50) is less than 3 µM against Human Calpain 1/NS1; less than 3 µM at Human Calpain 2/NS1; greater than 10 µM at Human Calpain 9/NS1; less than 3 µM at Human Cathepsin K; less than 3 µM at Human Cathepsin L; less than 3 µM on Human Cathepsin S. At Human Cathepsin B, this compound had an IC50 of less than 3 µM.
Regarding `CC(C)[C@@H]1NC(=O)/C=C/[C@@H](NC(=O)OC(C)(C)C)COC(=O)[C@H](Cc2ccc(O)cc2)NC1=O` [Compound 1, Tert-butyl ((3S,6S,11R,E)-3-(4-Hydroxybenzyl)-6-isopropyl-2,5,8-trioxo-1-oxa-4,7-Diazacyclododec-9-en-11-yl)carbamate], the IC50 against Human Calpain 1/NS1 was greater than 10 µM; against Human Calpain 2/NS1, greater than 10 µM; against Human Calpain 9/NS1, greater than 10 µM; on Human Cathepsin K, less than 3 µM; on Human Cathepsin L it was less than 3 µM; at Human Cathepsin S, less than 3 µM. Besides, the IC50 against Human Cathepsin B is less than 3 µM.
Take `CC(C)[C@@H]1NC(=O)/C=C/[C@@H](NC(=O)OC(C)(C)C)COC(=O)[C@H](C)NC1=O` [Compound 15, tert-butyl ((3S,6S,11R,E)-6-isopropyl-3-methyl-2,5,8-trioxo-1-oxa-4,7-diazacyclododec-9-en-11-yl)carbamate]: the IC50 on Human Calpain 1/NS1 is greater than 10 µM; on Human Calpain 2/NS1 it was greater than 10 µM; on Human Calpain 9/NS1, greater than 10 µM; against Human Cathepsin K it was less than 3 µM; against Human Cathepsin L, less than 3 µM; against Human Cathepsin S, less than 3 µM. The compound further came in with an IC50 on Human Cathepsin B of 3 to 10 µM.
On to `CC(C)[C@@H]1NC(=O)/C=C/[C@@H](NC(=O)OC(C)(C)C)COC(=O)[C@H](Cc2ccccc2)NC1=O` [Compound 5, Tert-butyl ((3S,6S,11R,E)-3-benzyl-6-isopropyl-2,5,8-trioxo-1-oxa-4,7-diazacyclododec-9-en-11-yl)carbamate], for which the IC50 was greater than 10 µM against Human Calpain 1/NS1; greater than 10 µM against Human Calpain 2/NS1; greater than 10 µM at Human Calpain 9/NS1; less than 3 µM against Human Cathepsin K; less than 3 µM at Human Cathepsin L; less than 3 µM at Human Cathepsin S. The IC50 against Human Cathepsin B was in the range of 3 to 10 µM.
With `CC(C)[C@@H]1NC(=O)/C=C/[C@@H](NC(=O)[C@@H](NC(=O)CNC(=O)OC(C)(C)C)C(C)C)COC(=O)[C@H](Cc2ccc(O)cc2)NC1=O` [Compound 7, tert-butyl (2-(((s)-1-(((3S,6S,11R,E)-3-(4-hydroxybenzyl)-6-isopropyl-2,5,8-trioxo-1-oxa-4,7-diazacyclododec-9-en-11-yl)amino)-3-methyl-1-oxobutan-2-yl)amino)-2-oxoethyl)carbamate], the IC50 against Human Calpain 1/NS1 was 3 to 10 µM; against Human Calpain 2/NS1 it was 3 to 10 µM; on Human Calpain 9/NS1, greater than 10 µM; at Human Cathepsin K, less than 3 µM; on Human Cathepsin L, less than 3 µM; on Human Cathepsin S it was less than 3 µM. The compound also displayed an IC50 at Human Cathepsin B of less than 3 µM.
`CC(C)[C@@H]1NC(=O)/C=C/[C@@H](N)COC(=O)[C@H](Cc2ccc(O[Si](C)(C)C(C)(C)C)cc2)NC1=O` [Compound 4, (3S,6S,11R,E)-11-amino-3-(4-((tert-butyldimethylsilyl)oxy)benzyl)-6-isopropyl-1-oxa-4,7-diazacyclododec-9-ene-2,5,8-trione]: the IC50 against Human Calpain 1/NS1 is greater than 10 µM; against Human Calpain 2/NS1, greater than 10 µM; against Human Calpain 9/NS1 it was greater than 10 µM; at Human Cathepsin K, less than 3 µM; against Human Cathepsin L, 3 to 10 µM; against Human Cathepsin S it was 3 to 10 µM. The IC50 against Human Cathepsin B is greater than 10 µM.
